In series [1] the test system is Helicobacter pylori strains 9470, 9472 and 9474. The series can be described thus: Antibacterial action against Helicobacter pylori (MIC, agar dilution). The conditions noted are these: 72 h, 37° C., 3 days, microaerophilic conditions, read-out: MIC (Minimum Inhibitory Concentration). The format is cell-based. As for the experimental part:
Antibacterial Action Against Helicobacter Pylori The antibacterial activity of the compound of the invention was evaluated by using Helicobacter pylori strains 9470, 9472 and 9474 and determining MIC (Minimum Inhibitory Concentration) of the compound of the invention against Helicobacter pylori. Helicobacter pylori was cultured by plating for 4 days. A medium was prepared by dissolving Brain Heart Infusion Agar (product of Difco Laboratories) in a prescribed amount of distilled water, sterilizing in an autoclave, adding equine blood (product of Nippon Seibutsu Zairyo) to give a concentration thereof of 7% and then solidifying the mixture. Under microaerophilic conditions, Helicobacter pylori which had been cultured at 37° C. for 4 days was suspended in physiological saline to give its viable count of about 10^8 CFU/ml. The suspension was then diluted to 100 times and a portion (about 10 μl) of the diluted suspension was inoculated in a medium for measuring MIC. The medium employed for measuring MIC has the same composition as the preculture medium. A compound of this invention was dissolved in dimethyl sulfoxide (DMSO) and two-fold serial dilutions were made with sterilized water. After mixing the solution and the medium in a ratio of 1:99, a solidified product in the Petri dish was employed as an MIC measuring medium. […]
For orientation: In agar dilution, organisms are placed on agar that contains the substance at set levels.

The subject of the next series is gastric acid secretion. As to the kind of experiment: Test for inhibition on gastric acid secretion in rats (pylorus ligation). Type of series: in vivo. The conditions noted are these: pylorus-ligated rats, orally administered, four hours after ligation. On the procedure: Test for Inhibition on Gastric Acid Secretion in Rats
After a group of rats was fasted overnight, they were subjected to midline abdominal incision and their pylorus was ligated under anesthesia with ether. The stomach and duodenum were returned to their original positions in the body, followed by closing at the abdominal incision part. A test compound (0.3 to 10 mg/ml) was suspended in an aqueous solution containing 0.5% of sodium carboxymethylcellulose and 0.4% of Tween 80 (trade mark). The resulting suspension (1 ml/kg of body weight) was orally administered to the rats through a stomach tube. Four hours after the ligation, the rats were sacrificed by inhalation of CO2 gas. They were subjected to abdominal incision to remove their stomach. The content of the stomach was collected in a glass-made graduated centrifuge tube. After centrifugation, the amount (ml) of the supernatant and the amount (ml) of the precipitate were measured. The precipitate of the amount exceeding 0.5 ml was regarded as feces and excluded from the data. The supernatant ([…]) was poured into a test tube. Distilled water (4 ml) was added to the solution, and the solution was titrated to pH 7.0 with 0.01 N sodium hydroxide. […] Each parameter was calculated in accordance with the following equations: […]

Series [2] deals with T1, proton potassium-adenosine triphosphatase (H+.K+-ATPase) (Sus scrofa, UniProt P19156).
T1 construct: A microsomal fraction prepared in accordance with the method of Sachs, et al; from tissue; host or cells: swine gastric mucosa, microsomal fraction (density gradient ultracentrifugation)
T1 sequence (P19156 2-1034 limits assumed): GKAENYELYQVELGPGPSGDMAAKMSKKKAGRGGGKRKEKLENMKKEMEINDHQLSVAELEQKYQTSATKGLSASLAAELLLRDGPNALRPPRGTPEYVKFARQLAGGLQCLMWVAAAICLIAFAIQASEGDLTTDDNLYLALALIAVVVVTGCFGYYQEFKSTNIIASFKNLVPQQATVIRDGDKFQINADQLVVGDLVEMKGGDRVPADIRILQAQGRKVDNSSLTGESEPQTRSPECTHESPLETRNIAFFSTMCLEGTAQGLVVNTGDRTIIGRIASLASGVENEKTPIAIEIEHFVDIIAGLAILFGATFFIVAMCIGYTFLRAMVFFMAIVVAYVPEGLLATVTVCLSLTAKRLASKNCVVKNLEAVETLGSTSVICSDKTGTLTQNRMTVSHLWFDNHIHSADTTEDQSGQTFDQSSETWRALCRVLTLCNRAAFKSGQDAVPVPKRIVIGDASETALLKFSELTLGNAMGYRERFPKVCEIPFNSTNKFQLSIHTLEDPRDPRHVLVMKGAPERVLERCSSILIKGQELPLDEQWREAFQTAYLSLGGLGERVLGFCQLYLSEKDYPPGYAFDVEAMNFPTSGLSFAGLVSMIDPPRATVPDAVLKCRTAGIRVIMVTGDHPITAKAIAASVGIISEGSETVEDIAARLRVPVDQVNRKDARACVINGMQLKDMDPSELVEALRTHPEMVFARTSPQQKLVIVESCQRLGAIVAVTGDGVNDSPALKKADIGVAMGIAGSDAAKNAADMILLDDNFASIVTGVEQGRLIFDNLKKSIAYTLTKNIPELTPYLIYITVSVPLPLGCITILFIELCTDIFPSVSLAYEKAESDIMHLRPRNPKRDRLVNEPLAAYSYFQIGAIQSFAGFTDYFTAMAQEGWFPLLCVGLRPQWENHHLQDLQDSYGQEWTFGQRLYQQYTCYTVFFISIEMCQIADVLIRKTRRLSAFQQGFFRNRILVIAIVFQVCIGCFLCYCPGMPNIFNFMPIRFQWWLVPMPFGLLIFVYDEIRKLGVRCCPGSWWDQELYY
T1 sequence (P18434 whole entry partner): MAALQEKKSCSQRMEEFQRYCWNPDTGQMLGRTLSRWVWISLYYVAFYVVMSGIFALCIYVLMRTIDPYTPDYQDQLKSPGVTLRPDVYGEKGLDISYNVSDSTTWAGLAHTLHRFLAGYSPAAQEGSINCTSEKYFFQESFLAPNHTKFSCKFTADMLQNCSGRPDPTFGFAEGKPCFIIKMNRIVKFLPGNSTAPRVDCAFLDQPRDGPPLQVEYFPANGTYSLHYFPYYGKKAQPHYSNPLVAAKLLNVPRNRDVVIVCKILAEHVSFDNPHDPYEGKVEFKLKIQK
As to the kind of experiment: Test on activity of proton potassium-adenosine triphosphatase (H+.K+-ATPase). The conditions noted are these: swine gastric mucosal microsomal fraction, pH 6.85, 37° C.; read-out: 50% inhibitory concentration (IC50) against proton potassium-adenosine triphosphatase (converted). Type of series: biochemical. On the procedure:
Test on Activity of Proton•potassium-adenosine Triphosphatase (H^+.K^+-ATPase) A microsomal fraction prepared in accordance with the method of Sachs, et al. [J. Bio. Chem., 251, 7690(1976)] by homogenizing a fresh gastric mucosal layer of swine and then subjecting the homogenate to density gradient ultra centrifugation was employed as a proton potassium-adenosine triphosphatase preparation. A solution (10 μl) of a test compound dissolved in dimethyl sulfoxide was added to 0.75 ml of a 70 mM tris hydrochloric acid buffer (5 mM magnesium chloride, 20 mM potassium chloride, pH=6.85) containing 30 to 80 μg/ml, in terms of the protein concentration, of the enzyme preparation. The mixture was incubated with 200 times/min of agitation at 37° C. for 45 minutes. The enzymatic reaction was started by adding 0.25 ml of an 8 mM solution of disodium adenosine triphosphate. After this enzymatic reaction was continued for 20 minutes, 1 ml of a 10% trichloroacetic acid—activated charcoal (100 mg) solution was added to terminate the reaction. […] The amount of inorganic phosphoric acid in a reaction mixture free from potassium chloride was also measured. By subtracting this amount from the amount of inorganic phosphoric acid in the presence of potassium chloride, protonpotassium-adenosine triphosphatase activity (H^+.K^+-ATPase) was determined. […]

The structures appear in SMILES notation.

For `CC(=O)OCc1c(C)n(C[C@H]2C[C@@H]2C)c2c(OCc3ccc(F)cc3)nncc12` [Example 1, 3-Acetoxymethyl-7-(4-fluorobenzyloxy)-2-methyl-1-[(1S,2S)-2-methylcyclopropylmethyl]pyrrolo[2,3-d]-pyridazine], the melting point fell in the range of 122 to 123 °C.
On to `Cc1c(CO)c2cnnc(OCc3ccc(F)cc3)c2n1C[C@H]1C[C@@H]1C` [Example 2, 7-(4-Fluorobenzyloxy)-3-hydroxymethyl-2-methyl-1-[(1S,2S)-2-methylcyclopropylmethyl]pyrrolo[2,3-d]-pyridazine], for which the melting point lay in the range of 128 to 129 °C. The MIC in series [1] is under 12.5 µg/mL. The “50% inhibitory dose (ID50), gastric acid output” value with gastric acid secretion is “less than 10 mg/kg”. Besides, the IC50 in series [2] was 42.2 nM.
In turn, `Cc1c(C=O)c2cnnc(OCc3ccc(F)cc3)c2n1C[C@H]1C[C@@H]1C` yielded a melting point of 138.5 to 139.5 °C.

Broadly, the melting point is the temperature, or range, at which the solid turns liquid.

Values taken from patent US6734181B2, “Pyrrolopyridazine compounds” (Sankyo Company, Limited, priority 2000, dated 2004).
